US20030235577A1, “Methods and compositions for preventing and treating microbial infections” (priority 2002, published 2003)

Tests used:
S aureus = experiment: Dose response of S. aureus to MMP-12 C-terminal peptides; assay type: cell-based, Staphylococcus aureus; details: various concentrations of peptide, 100 minutes
Experimental: Dose response: samples of S aureus were incubated with various concentrations of murine peptide (SEQ ID NO: 37), human peptide (SEQ ID NO: 36) and Human SNP peptide (SEQ ID NO:55). The human SNP peptide (SEQ ID NO:55) has a single nucleotide change from the sequence of SEQ ID NO 36. The peptide SEQ ID NO:36 has the amino acid sequence: […] and the peptide SEQ ID NO:55 has the amino acid sequence […]. The amount of bacteria remaining at various the various concentrations was determined for each group of a 100 minute time course.

S. aureus [1] = experiment: Peritonitis model, peptide injected intraperitoneally after S. aureus; assay type: in vivo, C57/B16 mice; details: 72 hour time point, peptide 1 mg intraperitoneally; for survival: S. aureus 6×10^7 CFU
Experimental: Bacterial preparation: Staphylococcus aureus a clinical isolate was grown in tryptic soy broth for 18 hours at 37° C. An aliquot was placed in fresh media and grown until mid-log phase of growth. S. aureus was centrifuged and washed in sterile PBS and diluted. Bacteria concentration of O.D.540 of 0.9, corresponding to a concentration of 6×10^7 CFU/ml was used for inoculation.
Peptide preparation: Murine MMP-12 C-terminal peptide […] (SEQ ID NO:37; 333-352) and Human MMP-12 C-terminal peptide […] (SEQ ID NO:36; 341-359) and a human MMP-12 peptide with a single nucleotide polymorphism: […] (SEQ ID NO:55) were solubilized in sterile H2O at a concentration of 4 mg/ml.
Peritonitis model: C57/B16 mice received intraperitoneal injection of bacteria in a total volume of 1 ml (6×10^7 CFU). Peptides were intraperitoneally injected immediately after at a dose of 1 mg. […] The control mice received the same intraperitoneal injection of bacteria as in the test groups and then received an injection of vehicle with no peptide.

S. aureus [2] = experiment: In vitro antimicrobial activity, co-incubation with S. aureus in 5% LB and CFU count; assay type: cell-based, Staphylococcus aureus; details: S. aureus, 5% LB culture, similar doses and conditions as full-length MMP-12
Experimental: S. aureus co-culture was incubated for 60 minutes with doses of MMP-12 C-terminal. Aliquots of cultures were diluted in PBS at 1:10 and 1:100 dilution. Dilutions were plated on LB agar plates for 18 hour incubation at 37° C. Controls consisted of column fractions that lacked MMP-12 carboxy terminal determined by immunoblotting.
MMP-12's mechanism of action as a host defense protein was investigated. To test for direct activity, functional full-length recombinant human MMP-12 was incubated with S. aureus in a 5% LB culture. […] MMP-12 enzymatic activity was not required for this antimicrobial effect.
Mid-log phase bacteria (10^5) were incubated in the absence or presence of purified MMP-12 C-terminal in a total volume of 100 μl of 10 mmol/L sodium phosphate containing 5% (vol/vol) TSB at 37° C. for 1 hour. Serial dilutions were then spread on agarose plates and the number of CFUs were determined after overnight incubation.

S. aureus [3] = experiment: Propidium iodide exclusion assay with fluorescence microscopy; assay type: cell-based, Staphylococcus aureus; details: 20 μg/ml, 30 minutes
Experimental: Recombinant segments of MMP-12 C-terminal were generated each covering one third of the C-terminal. Segments were then tested for anti-microbial activity against S. aureus. […] We hypothesized that in this region there was a secondary structure that had potential antimicrobial structure and properties consistent with the structure in cathelicidins. A predicted amphipathic and alpha helical structure was found in this region, which was conserved in the MMP-12 C-terminal domains from rabbit, rat, mouse and human. […] These studies have been repeated n>10 with similar results. FIG. 10 illustrates thae effect of MMP-12 C-terminal domain on cell survival.

Row | Substance | amount of S. aureus remaining (S aureus) | direct antimicrobial activity (S. aureus [2]) | further results
1 | ARNQVFLFKDDKYWLISNLR (listed as Homo sapiens) [Human MMP-12 peptide] | zero S. aureus at most concentrations | – | activity (clinical observation) (S. aureus [1]): normal activity; survival (S. aureus [1]): 100%
2 | ARNQVFLFKDDKYWLISSLR (listed as Homo sapiens) [Human SNP] | zero S aureus at all concentrations | – | –
3 | MMP-3: commercially available full length pro-MMP 3 [reference compound] | – | did not demonstrate this direct antimicrobial activity | –
4 | MMP-7: commercially available full length pro-MMP 7 [reference compound] | – | did not demonstrate this direct antimicrobial activity | –
5 | MMP-8: commercially available full length pro-MMP 8 [reference compound] | – | did not demonstrate this direct antimicrobial activity | –
6 | SRDLMFIFRGRKFWALNGYD [MMP-13 peptide, reference compound] | – | – | bacterial death, uptake of membrane impermeant dye (S. aureus [3]): little dye uptake
7 | SRNQLFLFKDEKYWLINNLV (listed as Mus musculus) [Murine MMP-12 peptide] | higher at each concentration | – | bacterial death, uptake of membrane impermeant dye (S. aureus [3]): clumping and increased uptake of membrane impermeant dye; activity (clinical observation) (S. aureus [1]): decrease activity; survival (S. aureus [1]): 75%
